For 19 molecules, T/C results are on record in PubChem BioAssay AID248 (DTP/NCI, 2004).

“And” between values parts separate entries of the source, which are not always exact repeats. Identical values can stand only once. Toxic doses and inconclusive results are not listed.

The test system of the assay is L1210 leukemia ip in BDF1 mice, survival T/C. The assay can be described thus: NCI In Vivo Anticancer Drug Screen. Data for tumor model L1210 Leukemia (intraperitoneal) in B6D2F1 (BDF1) mice. Conditions: endpoint: mean survival time, higher = longer survival. The method, boiled down: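 Transplanted-tumor mice were given test agent; controls received vehicle only. Survival readings from the two groups were divided (treated over control).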

[1] abbreviates: dose: 100.0 mg/kg/injection, schedule: Q01DX001 (ip), vehicle: saline.
[2] abbreviates: dose: 100.0 mg/kg/injection, schedule: Q01DX009 (ip), vehicle: water.
[3] abbreviates: dose: 200.0 mg/kg/injection, schedule: Q01DX009 (ip), vehicle: water.
[4] abbreviates: dose: 100.0 mg/kg/injection, schedule: Q04DX003 (ip), vehicle: saline with Tween-80.
Setting [5] is: dose: 200.0 mg/kg/injection, schedule: Q04DX003 (ip), vehicle: saline with Tween-80.
Where [6] appears, read: dose: 400.0 mg/kg/injection, schedule: Q04DX003 (ip), vehicle: saline with Tween-80.
Setting [7] is: dose: 200.0 mg/kg/injection, schedule: Q01DX001 (ip), vehicle: saline.
Setting [8] is: dose: 100.0 mg/kg/injection, schedule: Q01DX001 (ip), vehicle: Klucel (hydroxypropylcellulose) (HPC).
The mark [9] stands for this setting: dose: 200.0 mg/kg/injection, schedule: Q01DX001 (ip), vehicle: Klucel (hydroxypropylcellulose) (HPC).
[10] abbreviates: dose: 400.0 mg/kg/injection, schedule: Q01DX001 (ip), vehicle: Klucel (hydroxypropylcellulose) (HPC).

For the molecule `COc1ccc2nc3cc(Cl)ccc3c(Nc3ccc(O)c(CN4CCN(C)CC4)c3)c2c1`, the T/C is, setting by setting: (dose: 75.0 mg/kg/injection, schedule: Q01DX001 (ip), vehicle: other) 96 % of control; (dose: 75.0 mg/kg/injection, schedule: Q04DX003 (ip), vehicle: other) 94 % of control; (dose: 150.0 mg/kg/injection, schedule: Q01DX001 (ip), vehicle: other) 100 % of control; (dose: 150.0 mg/kg/injection, schedule: Q04DX003 (ip), vehicle: other) 97 % of control; (dose: 300.0 mg/kg/injection, schedule: Q01DX001 (ip), vehicle: other) 97 % of control.
Consider `CCN(CC)c1ccc(SC#N)cc1`, for which the T/C under setting [1] is 101 % of control.
For the molecule `NC(CSS(=O)(=O)O)=NCCc1ccccc1`, the T/C by setting is: (dose: 3.13 mg/kg/injection, schedule: Q04DX002 (ip), vehicle: Klucel (hydroxypropylcellulose) (HPC)) 103 % of control; (dose: 6.25 mg/kg/injection, schedule: Q04DX002 (ip), vehicle: Klucel (hydroxypropylcellulose) (HPC)) 100 % of control; (dose: 12.5 mg/kg/injection, schedule: Q04DX002 (ip), vehicle: Klucel (hydroxypropylcellulose) (HPC)) 100 % of control.
Turning to `O=C1C=CC(=Nc2ccc3c(c2)C(Br)c2ccccc2-3)O1` (configuration not stated), the T/C by setting is: (dose: 3.12 mg/kg/injection, schedule: Q04DX003 (ip), vehicle: saline) 100 % of control; (dose: 4.5 mg/kg/injection, schedule: Q01DX009 (ip), vehicle: saline) 102 % of control; (dose: 6.25 mg/kg/injection, schedule: Q04DX003 (ip), vehicle: saline) 105 % of control; (dose: 9.0 mg/kg/injection, schedule: Q01DX009 (ip), vehicle: saline) 95 % of control; (dose: 12.5 mg/kg/injection, schedule: Q01DX001 (ip), vehicle: acetone) 100 % of control; (dose: 12.5 mg/kg/injection, schedule: Q04DX003 (ip), vehicle: saline) 103 % of control. In addition, the T/C (dose: 18.0 mg/kg/injection, schedule: Q04DX003 (ip), vehicle: saline) is 98 % of control.
Consider `CCCCN(C)/N=N/c1[nH]ncc1C(=O)OCC`, for which the T/C runs as follows: (dose: 52.0 mg/kg/injection, schedule: Q01DX009 (ip), vehicle: other) 119 % of control; (dose: 78.0 mg/kg/injection, schedule: Q01DX009 (ip), vehicle: other) 119 % of control; (dose: 266.0 mg/kg/injection, schedule: Q01DX007 (ip), vehicle: saline) 154 % of control; (dose: 266.0 mg/kg/injection, schedule: Q01DX009 (ip), vehicle: other) 168 % of control; (dose: 400.0 mg/kg/injection, schedule: Q01DX007 (ip), vehicle: saline) 174 % of control.
Take `COc1cc2c(cc1OC)C(=O)N(C)CC2`: the T/C runs as follows: under setting [2], 95 % of control; (dose: 100.0 mg/kg/injection, schedule: Q04DX003 (ip), vehicle: water) 97 % of control; under setting [3], 102 % of control; (dose: 200.0 mg/kg/injection, schedule: Q04DX003 (ip), vehicle: water) 97 % of control; (dose: 400.0 mg/kg/injection, schedule: Q04DX003 (ip), vehicle: water) 100 % of control.
Regarding `CCSc1nc(C=O)c(Cc2ccc(Br)cc2)c(=O)[nH]1`, the T/C under setting [4] was 106 % of control, the T/C under setting [5] was 103 % of control and the T/C under setting [6] is 106 % of control.
For the molecule `CC(C)CC1NC(C)(C)N(CC(=O)O)C1=O` (configuration not stated), the T/C by setting is: (dose: 50.0 mg/kg/injection, schedule: Q01DX001 (ip), vehicle: saline) 88 % of control; under setting [7], 99 % of control.
Consider `CC12CCC(O)C(CC1)C2` (configuration not stated), for which the T/C by setting is: under setting [4], 107 % of control; under setting [5], 88 % of control; under setting [6], 95 % of control.
On to `OCC1OC(n2ccc3c([Se])ncnc32)C(O)C1O` (configuration not stated), for which the T/C (dose: 12.5 mg/kg/injection, schedule: Q01DX005 (ip), vehicle: saline) was 119 % of control; the T/C (dose: 25.0 mg/kg/injection, schedule: Q01DX005 (ip), vehicle: saline) is 122 % of control; the T/C (dose: 50.0 mg/kg/injection, schedule: Q01DX005 (ip), vehicle: saline) is 115 % of control; the T/C (dose: 100.0 mg/kg/injection, schedule: Q01DX005 (ip), vehicle: saline) is 122 % of control.
With `CC(C)=NNc1ccnc(SCc2ccccc2)n1`, the T/C reads like this: (dose: 100.0 mg/kg/injection, schedule: Q04DX003 (ip), vehicle: Klucel (hydroxypropylcellulose) (HPC)) 96 % of control; (dose: 200.0 mg/kg/injection, schedule: Q04DX003 (ip), vehicle: Klucel (hydroxypropylcellulose) (HPC)) 97 % of control; (dose: 400.0 mg/kg/injection, schedule: Q04DX003 (ip), vehicle: Klucel (hydroxypropylcellulose) (HPC)) 102 % of control.
In the case of `N#CC1(C(N)=O)OC12CCS(=O)(=O)c1ccccc12` (configuration not stated), the T/C under setting [1] is 87 % of control and the T/C under setting [7] was 94 % of control.
As to `CN(C)c1n[nH]c(N)n1`, the T/C (dose: 25.0 mg/kg/injection, schedule: Q01DX009 (ip), vehicle: saline) is 100 % of control; the T/C (dose: 25.0 mg/kg/injection, schedule: Q04DX002 (ip), vehicle: saline) was 110 % of control; the T/C (dose: 50.0 mg/kg/injection, schedule: Q01DX009 (ip), vehicle: saline) is 98 % of control; the T/C (dose: 50.0 mg/kg/injection, schedule: Q04DX002 (ip), vehicle: saline) is 103 % of control; the T/C (dose: 100.0 mg/kg/injection, schedule: Q01DX009 (ip), vehicle: saline) is 96 % of control; the T/C (dose: 200.0 mg/kg/injection, schedule: Q01DX009 (ip), vehicle: saline) was 108 % of control. Also, the T/C is 111 % of control (dose: 200.0 mg/kg/injection, schedule: Q04DX002 (ip), vehicle: saline with Tween-80); 103 % of control (dose: 200.0 mg/kg/injection, schedule: Q04DX002 (ip), vehicle: saline); 116 % of control (dose: 400.0 mg/kg/injection, schedule: Q01DX009 (ip), vehicle: saline); 108 % of control (dose: 400.0 mg/kg/injection, schedule: Q04DX002 (ip), vehicle: saline with Tween-80).
With `CCOC(=O)C(C#N)(CC/C(C)=N/Nc1ccc([N+](=O)[O-])cc1[N+](=O)[O-])C(C)COC(C)=O` (configuration not stated), the T/C under setting [8] is 94 % of control, the T/C under setting [9] is 91 % of control and the T/C under setting [10] is 102 % of control.
On to `CC(=O)[C@H]1CC[C@H]2[C@@H]3CCC4=CC(=O)[C@H](C)C[C@]4(C)[C@@]3(F)[C@@H](O)C[C@]12C`, for which the T/C runs as follows: (dose: 125.0 mg/kg/injection, schedule: Q01DX Z (sc), vehicle: steriod suspending solution) 105 % of control; (dose: 250.0 mg/kg/injection, schedule: Q01DX Z (sc), vehicle: steriod suspending solution) 111 % of control; (dose: 375.0 mg/kg/injection, schedule: Q01DX Z (sc), vehicle: steriod suspending solution) 105 % of control; (dose: 500.0 mg/kg/injection, schedule: Q01DX Z (sc), vehicle: steriod suspending solution) 103 % of control.
`CC(C)=Cc1ccno1`: the T/C is 100 % of control under setting [1]; 100 % of control under setting [7]; 100 % of control (dose: 400.0 mg/kg/injection, schedule: Q01DX001 (ip), vehicle: saline).
As to `O=C(NC1CSSC1)C(Cc1ccccc1)N1C(=O)c2ccccc2C1=O` (configuration not stated), the T/C (dose: 6.25 mg/kg/injection, schedule: Q01DX009 (ip), vehicle: water) was 94 % of control; the T/C (dose: 12.5 mg/kg/injection, schedule: Q01DX009 (ip), vehicle: water) was 96 % of control; the T/C (dose: 25.0 mg/kg/injection, schedule: Q01DX009 (ip), vehicle: water) is 107 % of control; the T/C (dose: 50.0 mg/kg/injection, schedule: Q01DX009 (ip), vehicle: water) is 96 % of control and 88 % of control; the T/C under setting [2] is 87 % of control and 91 % of control; the T/C under setting [3] was 98 % of control. Moreover, the T/C (dose: 400.0 mg/kg/injection, schedule: Q01DX009 (ip), vehicle: water) is 96 % of control.
Consider `Cc1c(F)c(Br)c([N+](=O)[O-])c(C)c1[N+](=O)[O-]`, for which the T/C under setting [8] is 96 % of control, the T/C under setting [9] is 102 % of control and the T/C under setting [10] is 102 % of control.
On to `COC1OC(CN(CCOS(C)(=O)=O)CCOS(C)(=O)=O)C2OC(C)(C)OC12` (configuration not stated), for which the T/C is, setting by setting: (dose: 50.0 mg/kg/injection, schedule: Q01DX001 (ip), vehicle: Klucel (hydroxypropylcellulose) (HPC)) 114 % of control; under setting [8], 108 % of control; under setting [9], 107 % of control; under setting [10], 105 % of control.
